Test results taken from PMC8954350, “Non-Canonical Cannabinoid Receptors with Distinct Binding and Signaling Properties in Prostate and Other Cancer Cell Types Mediate Cell Death” (International Journal of Molecular Sciences, 2022).
Entries after “also recorded” stand apart in the source; their conditions may differ. Where two headings read alike, the source gives them in different places.

How the values were obtained:
[1] = test system: CBRs expressed in PC-3 membranes; assay: [^3H]WIN-55,212-2 competitive binding screen, PC-3 membranes; parameters: species or system human
Description: The assay was conducted as previously detailed. […] All binding reactions were conducted in triplicate, in a final volume of 1 mL, and, following mixing, were incubated for 20 min in a 37 °C water bath to achieve equilibrium. After incubation, reactions were terminated by rapid vacuum filtration through Whatman GF/B glass fiber filters (Brandel; Gaithersburg, MD, USA), followed by three washes of 4 mls of ice-cold filtration buffer (50 mM Tris, pH 7.4, and 0.05% bovine serum albumin). Samples were punched out from filter papers into scintillation vials, to which 4 mls of ScintiverseTM-BDR cocktail scintillation fluid (Fisher Scientific; Hampton, NH, USA) was added. Filters were incubated at room temperature for 24 h in scintillation fluid, vortexed, and radioactivity (measured as DPMs) was quantified via a liquid scintillation spectrophotometer (Tri Carb 2100 TR Liquid Scintillation Analyzer, Packard Instruments, Meriden, CT, USA).
These experiments were conducted to screen well-characterized cannabinoid ligands with high affinity for canonical CB1 and/or CB2Rs for binding to CBRs expressed in prostate cancer cells lines, as detailed in [33]. […] All binding reactions were conducted in triplicate, in a final volume of 1 mL, and, following mixing, were incubated for 20 min in a 37 °C water bath to achieve equilibrium. After incubation, reactions were terminated by rapid vacuum filtration and processed for radioactivity, as detailed in Section 4.5.1.

[2] = test system: CBRs expressed in PC-3 membranes; assay: [^35S]GTPγS binding, PC-3 membranes; format: biochemical, human; conditions: 10 μM
Description: [^35S]GTPγS binding experiments were conducted to examine G protein modulation by cannabinoids in prostate cancer cell lines DU-145 and PC-3, as detailed previously. Briefly, CHO-hCB2 (50 μg), PC3 (100 μg), or DU-145 (100 μg) membrane homogenates were incubated with a single receptor-saturating concentration (10^−5 M) of cannabinoid ligands to be examined and 0.1 nM [^35S]GTPγS in incubation buffer (20 mM HEPES buffer, pH 7.4, 10 μM GDP, 100 mM NaCl, 0.1% bovine serum albumin, and 10 mM MgCl2). Non-specific binding was defined as radioactivity remaining in the presence of 10 μM of non-radioactive GTPγS and subtracted from total binding to determine specific [^35S]GTPγS binding. All binding reactions were conducted in triplicate, in a final volume of 1 mL, and, following mixing, were incubated for 30 min at 30 °C. After incubation, reactions were terminated by rapid vacuum filtration through Whatman GF/B glass fiber filters (Brandel; Gaithersburg, MD, USA), followed by three washes of 4 mls of ice-cold filtration buffer (50 mM Tris, pH 7.4, and 0.05% bovine serum albumin). Samples were punched out from filter papers into scintillation vials, to which 4 mls of ScintiverseTM-BDR cocktail scintillation fluid (Fisher Scientific; Hampton, NH, USA) was added. Filters were incubated at room temperature for 24 h in scintillation fluid, vortexed, and radioactivity (measured as DPMs) was determined via a liquid scintillation spectrophotometer (Tri Carb 2100 TR Liquid Scintillation Analyzer, Packard Instruments, Meriden, CT, USA).

[3] = test system: CBRs expressed in DU-145 membranes; format: biochemical, human; conditions: 10 μM
Description: Non-specific binding was defined as radioactivity remaining in the presence of 10 μM of non-radioactive GTPγS and subtracted from total binding to determine specific [^35S]GTPγS binding. All binding reactions were conducted in triplicate, in a final volume of 1 mL, and, following mixing, were incubated for 30 min at 30 °C. After incubation, reactions were terminated by rapid vacuum filtration through Whatman GF/B glass fiber filters (Brandel; Gaithersburg, MD, USA), followed by three washes of 4 mls of ice-cold filtration buffer (50 mM Tris, pH 7.4, and 0.05% bovine serum albumin). Samples were punched out from filter papers into scintillation vials, to which 4 mls of ScintiverseTM-BDR cocktail scintillation fluid (Fisher Scientific; Hampton, NH, USA) was added. Filters were incubated at room temperature for 24 h in scintillation fluid, vortexed, and radioactivity (measured as DPMs) was determined via a liquid scintillation spectrophotometer (Tri Carb 2100 TR Liquid Scintillation Analyzer, Packard Instruments, Meriden, CT, USA).

[4] = test system: CBRs expressed in DU-145 cells; format: cell-based, human
Description: (§1) These studies were conducted to determine the effect of chronic exposure of PC-3 and DU-145 cells to cannabinoid ligands with high affinity for non-canonical CBRs on receptor expression. PC-3 or DU-145 cells were seeded into T25 flasks at a density of 1.6 × 10^6 cells in normal medium and cultured at 37 °C with 5% CO2 for 24 h. Following overnight seeding, culture media was aspirated and replaced with serum-free medium containing vehicle or a receptor-saturating concentration (10 μM) of each cannabinoid ligand to be tested. Cells were subsequently cultured at 37 °C with 5% CO2 for an additional 48 h. […] Cells were then centrifuged at 1200 rpm for 10 min, and pellets were stored in −80 °C until future use.
(§2) All binding reactions were conducted in triplicate, in a final volume of 1 mL, and following mixing were incubated for 20 min in a 37 °C water bath to achieve equilibrium. After incubation, reactions were terminated by rapid vacuum filtration through Whatman GF/B glass fiber filters (Brandel; Gaithersburg, MD, USA), followed by three washes of 4 mls of ice-cold filtration buffer (50 mM Tris, pH 7.4, and 0.05% bovine serum albumin). Samples were punched out from filter papers into scintillation vials, to which 4 mls of ScintiverseTM-BDR cocktail scintillation fluid (Fisher Scientific; Hampton, NH, USA) was added. Filters were incubated at room temperature for 24 h in scintillation fluid, vortexed, and radioactivity (measured as DPMs) was quantified via a liquid scintillation spectrophotometer (Tri Carb 2100 TR Liquid Scintillation Analyzer, Packard Instruments, Meriden, CT, USA).

[5] = test system: CBRs expressed in PC-3 cells; format: cell-based, human
Description: as §1, §2

DU-145 cells = assay: LDH cytotoxicity, DU-145 cells; format: cell-based, human; conditions: 24 h; for LDH release: 10 μM; for increase in LDH release: 50 μM
Description: DU-145 cells were seeded at a density of 130 × 10^3 cells/well in 6-well plates and maintained in an incubator at 37 °C with 5% CO2 for 24 h. […] Treated cells were incubated for an additional 24 h, followed by quantification of LDH release. LDH released from damaged or dying cells oxidizes lactate to produce NADH which then reacts with a water-soluble tetrazolium salt (WST) reagent to produce a yellow-colored product. The intensity of the yellow-colored product was detected with an OD reading at 450 nm (quantified by a BioTek microplate reader interfaced with SoftMax Pro 5.4.5 software; Winooski, VT, USA) and was directly proportional to the amount of LDH released. Percent cytotoxicity was calculated according to the manufacturer’s protocol as the following: % Cytotoxicity=OD450 Supernatant/Supernatant+Lysate

[6] = 1 μM ligand, 1 nM radioligand, PC-3 membranes

COc1ccc2c(c1)c(CCN1CCOCC1)c(C)n2C(=O)c1cccc(Cl)c1Cl [GW-405833]
displacement of [^3H]WIN-55,212-2 [1]: greater than 50%
modulation of [^35S]GTPγS binding [2]: neither the agonist at canonical CB1/CB2 receptors WIN-55-212-2 (10 μM) nor the CB2-selective agonist GW-405-833 (10 μM) increased [^35S]GTPγS binding
modulation of [^35S]GTPγS binding [3]: neither the agonist at canonical CB1/CB2 receptors WIN-55-212-2 (10 μM) nor the CB2-selective agonist GW-405-833 (10 μM) increased [^35S]GTPγS binding
CBR downregulation (reduction of [^3H]WIN-55,212-2 (1 nM) binding) [4]: 55 ± 12.5%
CBR downregulation (reduction of [^3H]WIN-55,212-2 (1 nM) binding) [5]: 68.33 ± 3.8%
LDH release (DU-145 cells): No significant effects
increase in LDH release (DU-145 cells): 74.2 ± 4.5%

Cc1c(C(=O)c2cccc3ccccc23)c2cccc3c2n1[C@H](CN1CCOCC1)CO3 [WIN-55,212-2]
displacement of [^3H]WIN-55,212-2 [1, 6]: significantly displaced; also recorded: complete displacement
modulation of [^35S]GTPγS binding [2]: neither the agonist at canonical CB1/CB2 receptors WIN-55-212-2 (10 μM) nor the CB2-selective agonist GW-405-833 (10 μM) increased [^35S]GTPγS binding
decrease in [^35S]GTPγS binding below basal levels [3]: 15.3 ± 1.6%
modulation of [^35S]GTPγS binding [3]: neither the agonist at canonical CB1/CB2 receptors WIN-55-212-2 (10 μM) nor the CB2-selective agonist GW-405-833 (10 μM) increased [^35S]GTPγS binding
CBR downregulation (reduction of [^3H]WIN-55,212-2 (1 nM) binding) ([4]; DU-145 cells, 10 μM, 48 h, vs vehicle): 88.45 ± 5.22%
CBR downregulation (reduction of [^3H]WIN-55,212-2 (1 nM) binding) ([5]; PC-3 cells, 10 μM, 48 h, vs vehicle): 84.33 ± 5.2%
LDH release (DU-145 cells): neither low (10 μM) nor high (50 μM) concentrations of WIN-55,212-2, AM-251 or AM-630 altered LDH release
increase in LDH release (DU-145 cells): neither low (10 μM) nor high (50 μM) concentrations of WIN-55,212-2, AM-251 or AM-630 altered LDH release

Cc1c(C(=O)NN2CCCCC2)nn(-c2ccc(Cl)cc2Cl)c1-c1ccc(Cl)cc1 [rimonabant]
displacement of [^3H]WIN-55,212-2 [1, 6]: greater than 50%
modulation of [^35S]GTPγS binding [2]: did reduce [^35S]GTPγS binding below basal levels
modulation of [^35S]GTPγS binding [3]: did reduce [^35S]GTPγS binding below basal levels
CBR downregulation (reduction of [^3H]WIN-55,212-2 (1 nM) binding) [4]: 63.75 ± 15.5%
CBR downregulation (reduction of [^3H]WIN-55,212-2 (1 nM) binding) [5]: non-significant trend towards decreased receptor expression
LDH release (DU-145 cells): No significant effects
increase in LDH release (DU-145 cells): 16.5 ± 3.5%
attenuation of GW-405833 (50 μM)-induced LDH release (DU-145 cells; co-incubation with 10 μM ligand): almost completely blocked GW-405833 induced LDH release
